# Data as given in patent publication US7687535B2, “Substituted 3-sulfur indoles” (AstraZeneca AB, priority 2003, dated 2010).
# Biological target: T1, rhCRTh2 (Homo sapiens, UniProt Q9Y5Y4)
# T1 construct: expressed in transfected cells; host or cells: HEK cells (membrane preparation)
# T1 sequence (Q9Y5Y4 1-395): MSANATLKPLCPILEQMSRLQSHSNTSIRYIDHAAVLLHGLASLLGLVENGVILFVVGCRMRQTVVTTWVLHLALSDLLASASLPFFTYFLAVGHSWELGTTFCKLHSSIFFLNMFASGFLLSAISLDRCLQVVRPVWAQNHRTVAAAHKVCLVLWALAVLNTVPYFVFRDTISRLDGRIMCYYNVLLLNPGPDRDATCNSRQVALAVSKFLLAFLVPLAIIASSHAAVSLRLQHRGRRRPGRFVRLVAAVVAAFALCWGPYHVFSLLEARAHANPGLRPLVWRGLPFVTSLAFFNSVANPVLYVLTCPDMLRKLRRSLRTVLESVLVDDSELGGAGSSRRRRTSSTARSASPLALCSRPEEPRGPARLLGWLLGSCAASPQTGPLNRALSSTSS
# Test: Ligand Binding Assay ([3H]PGD2 SPA, HEK cell membranes)
# Settings: [3H]PGD2 binding to membranes of HEK cells expressing rhCRTh2/Gα16, SPA beads, 2 hours at room temperature
# Experimental: [^3H]PGD2 was purchased from Perkin Elmer Life Sciences with a specific activity of 100-210 Ci/mmol. All other chemicals were of analytical grade.
# HEK cells expressing rhCRTh2/Gα16 were routinely maintained in DMEM containing 10% Foetal Bovine Serum (HyClone), 1 mg/ml geneticin, 2 mM L-glutamine and 1% non-essential amino acids. For the preparation of membranes, the adherent transfected HEK cells were grown to confluence in two layer tissue culture factories (Fisher, catalogue number TKT-170-070E). Maximal levels of receptor expression were induced by addition of […] sodium butyrate for the last 18 hours of culture. The adherent cells were washed once with phosphate buffered saline (PBS, 50 ml per cell factory) and detached by the addition of 50 ml per cell factory of ice-cold membrane homogenisation buffer [20 mM HEPES (pH 7.4), 0.1 mM dithiothreitol, 1 mM EDTA, 0.1 mM phenyl methyl sulphonyl fluoride and 100 μg/ml bacitracin]. […] The final pellet was re-suspended in 4 ml of membrane homogenisation buffer per cell factory used and the protein content determined. […]
# All assays were performed in Corning clear bottomed, white 96-well NBS plates (Fisher). […] (The optimum coating concentrations were determined for each batch of membranes) The beads were pelleted by centrifugation (800×g for 7 minutes at 4° C.), washed once with assay buffer (50 mM HEPES pH 7.4 containing 5 mM magnesium chloride) and finally re-suspended in assay buffer at a bead concentration of 10 mg/ml.
# Each assay contained 20 μl of 6.25 nM [^3H]PGD2, 20 μl membrane saturated SPA beads both in assay buffer and 10 μl of compound solution or 13,14-dihydro-15-keto prostaglandin D2 (DK-PGD2, for determination of non-specific binding, Cayman chemical company). […] The assay plate was incubated at room temperature for 2 hours and counted on a Wallac Microbeta liquid scintillation counter (1 minute per well).
row,Structure (SMILES),IC50
1,"Cc1noc(C)c1-c1ccc2c(c1)c(Sc1ccc(S(C)(=O)=O)cc1)c(C)n2CC(=O)O [Example 34, 5-(3,5-Dimethyl-4-isoxazolyl)-2-methyl-3-[[4-(methylsulfonyl)phenyl]thio]-1H-indole-1-acetic acid]",0.398 nM
2,"Cc1c(Sc2ccc(S(C)(=O)=O)cc2)c2c(-c3cccs3)cccc2n1CC(=O)O [Example 26, 2-Methyl-3-[[4-(methylsulfonyl)phenyl]thio]-4-(2-thiophenyl)-1H-indole-1-acetic acid]",4.47 nM
3,"CCN(C(C)=O)c1cccc2c1c(Sc1ccc(Cl)cc1)c(C)n2CC(=O)O [Example 14, 4-(Acetylethylamino)-3-[(4-chlorophenyl)thio]-2-methyl-1H-indole-1-acetic acid]",224 nM

# Tested on: not given
# Test: not given
# Settings: not given
row,Structure (SMILES),melting point
1,"Cc1c(Sc2cccc3cccnc23)c2cc(NS(C)(=O)=O)ccc2n1CC(=O)O [Example 11, 3-[(8-Quinolinyl)thio]-2-methyl-5-[(methylsulfonyl)amino]-1H-indole-1-acetic acid]",257 °C
2,Cc1c(Sc2ccc(Cl)cc2)c2c(NC(=O)C3CC3)cccc2n1CC(=O)O [Example 15],183 to 185 °C
3,"Cc1c(Sc2ccccc2C(F)(F)F)c2cc(NS(C)(=O)=O)ccc2n1CC(=O)O [Example 10, 3-[(2-Trifluoromethylphenyl)thio]-2-methyl-5-[(methylsulfonyl)amino]-1H-indole-1-acetic acid]",207 °C
4,Cc1c(Sc2ccc(S(C)(=O)=O)cc2)c2cc(-c3cncnc3)ccc2n1CC(=O)O [Example 32],> 290 °C
5,"Cc1c(Sc2ccc(Cl)cc2)c2c(NC(=O)c3ccccc3)cccc2n1CC(=O)O [Example 16, 4-(Benzoylamino)-3-[(4-chlorophenyl)thio]-2-methyl-1H-indole-1-acetic acid]",213 to 215 °C

# Now from value to molecule:
row,melting point,Structure (SMILES)
1,233 to 236 °C,"Cc1c(Sc2cccc(S(C)(=O)=O)c2)c2cc(NS(C)(=O)=O)ccc2n1CC(=O)O [Example 30, 2-Methyl-5-[(methylsulfonyl)amino]-3-[[3-(methylsulfonyl)phenyl]thio]-1H-indole-1-acetic acid]"
2,224 °C,"Cc1c(Sc2cccc(Cl)c2)c2cc(NS(C)(=O)=O)ccc2n1CC(=O)O [Example 6, 3-[(3-Chlorophenyl)thio]-2-methyl-5-[(methylsulfonyl)amino]-1H-indole-1-acetic acid]"
3,214 °C,"Cc1c(Sc2ccc(Cl)cc2)c2cc(NS(C)(=O)=O)ccc2n1CC(=O)O [Example 7, 3-[(4-Chlorophenyl)thio]-2-methyl-5-[(methylsulfonyl)amino]-1H-indole-1-acetic acid]"
4,292 °C,"COc1cccc(Sc2c(C)n(CC(=O)O)c3ccc(NS(C)(=O)=O)cc23)c1 [Example 8, 3-[(3-Methoxyphenyl)thio]-2-methyl-5-[(methylsulfonyl)amino]-1H-indole-1-acetic acid]"
5,160 °C,"Cc1c(Sc2ccccc2C(C)C)c2cc(NS(C)(=O)=O)ccc2n1CC(=O)O [Example 12, 3-[(2-(Methylethyl)phenyl)thio]-2-methyl-5-[(methylsulfonyl)amino]-1H-indole-1-acetic acid]"
6,215 °C,"COc1ccc(Sc2c(C)n(CC(=O)O)c3ccc(NS(C)(=O)=O)cc23)cc1 [Example 9, 3-[(4-Methoxyphenyl)thio]-2-methyl-5-[(methylsulfonyl)amino]-1H-indole-1-acetic acid]"
7,212 °C,"Cc1c(Sc2ccccc2Cl)c2cc(NS(C)(=O)=O)ccc2n1CC(=O)O [Example 5, 3-[(2-Chlorophenyl)thio]-2-methyl-5-[(methylsulfonyl)amino]-1H-indole-1-acetic acid]"
8,227 to 230 °C,"Cc1c(Sc2ccccc2S(C)(=O)=O)c2cc(NS(C)(=O)=O)ccc2n1CC(=O)O [Example 31, 2-Methyl-5-[(methylsulfonyl)amino]-3-[[2-(methylsulfonyl)phenyl]thio]-1H-indole-1-acetic acid]"
